Results published in patent US20170355705A1 (GlaxoSmithKline Intellectual Property (No.2) Limited, priority 2014, published 2017).

Target: T1, SIRT1 (Homo sapiens, UniProt Q96EB6)
T1 sequence (Q96EB6 1-747): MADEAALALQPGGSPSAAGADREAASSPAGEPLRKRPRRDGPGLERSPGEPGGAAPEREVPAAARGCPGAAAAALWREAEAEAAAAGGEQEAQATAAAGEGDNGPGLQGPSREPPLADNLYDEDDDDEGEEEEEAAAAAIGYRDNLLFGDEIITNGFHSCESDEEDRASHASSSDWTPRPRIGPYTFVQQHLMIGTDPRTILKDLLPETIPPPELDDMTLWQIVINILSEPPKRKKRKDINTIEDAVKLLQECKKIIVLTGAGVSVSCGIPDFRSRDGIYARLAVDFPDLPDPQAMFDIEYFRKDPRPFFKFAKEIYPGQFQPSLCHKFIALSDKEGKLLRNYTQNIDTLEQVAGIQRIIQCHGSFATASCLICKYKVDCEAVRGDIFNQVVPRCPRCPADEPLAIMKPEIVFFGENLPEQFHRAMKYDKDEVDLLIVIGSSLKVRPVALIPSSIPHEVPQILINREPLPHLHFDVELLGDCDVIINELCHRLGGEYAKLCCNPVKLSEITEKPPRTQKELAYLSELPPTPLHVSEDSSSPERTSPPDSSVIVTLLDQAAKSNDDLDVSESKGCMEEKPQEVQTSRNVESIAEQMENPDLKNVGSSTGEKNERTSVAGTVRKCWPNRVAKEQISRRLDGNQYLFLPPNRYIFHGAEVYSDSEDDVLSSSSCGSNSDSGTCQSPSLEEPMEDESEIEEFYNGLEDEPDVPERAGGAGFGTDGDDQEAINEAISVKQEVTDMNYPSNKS
Assay: Trp mass spectrometry assay of SIRT1 activity (EC1.5, percent maximum activation)
Assay type: biochemical
Details: Trp mass spectrometry assay; for TRP Activity (EC1.5): EC1.5 = concentration giving 150% activation of SIRT1
Outline: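 Mass spectrometry read-out (OAADPR formed, or deacetylated Trp peptide) after a 25 min NAD-dependent deacetylation by E. coli-expressed His-SIRT1, stopped with formic acid.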

[1] = percent maximum activation of SIRT1
[2] = 0.5 μM peptide substrate, 120 μM βNAD+, 10 nM SIRT1, 25 minutes at 25° C.

SMILES | TRP Activity (EC1.5) | TRP MAX RESP (percent maximum fold activation) [1] | TRP Activity (EC1.5, concentration of test compound that results in 150% activation of SIRT1) [2] | TRP MAX RESP (percent maximum fold activation) [2]
Cc1ncc(-c2ccnc(NC(=O)N3c4nc(-c5cccc(C(F)(F)F)c5)cc(C)c4N4CC[C@H]3C4)c2)o1 [Example 86, (4S)-9-methyl-N-(4-(2-methyloxazol-5-yl)pyridin-2-yl)-7-(3-(trifluoromethyl)phenyl)-3,4-dihydro-1,4-methanopyrido[2,3-b][1,4]diazepine-5(2H)-carboxamide] | A (EC1.5<1 μM) | A (Fold activation ≧150%) |  | 
Cc1cc(-c2ccc3c(n2)N(C(=O)NCCc2ccccn2)[C@H]2CCN3C2)ccn1.Cl [Example 196, (4S)-7-(2-methylpyridin-4-yl)-N-(2-(pyridin-2-yl)ethyl)-3,4-dihydro-1,4-methanopyrido[2,3-b][1,4]diazepine-5(2H)-carboxamide hydrochloride] | C (EC1.5>25 μM) | B (Fold Activation <150%) |  | 
CC(C)(CO)COc1nccc(NC(=O)N2c3nc(-c4cccc(C(F)(F)F)c4)ccc3N3CC[C@H]2C3)n1 [Example 321, (4S)-N-(2-(3-hydroxy-2,2-dimethylpropoxy)pyrimidin-4-yl)-7-(3-(trifluoromethyl)phenyl)-3,4-dihydro-1,4-methanopyrido[2,3-b][1,4]diazepine-5(2H)-carboxamide] |  |  | B (EC1.5 1-25 μM) | A (Fold activation ≧150%)
CC(C)n1cc(-c2ccc3c(n2)N(C(=O)Nc2cnccn2)[C@H]2CCN3C2)cn1 [Example 252] |  |  |  | A (Fold activation ≧150%)
Cc1ccc(NC(=O)N2c3nc(-c4ccnc(C)c4)ccc3N3CC[C@H]2C3)cn1 [Example 178, (4S)-N-(6-methylpyridin-3-yl)-7-(2-methylpyridin-4-yl)-3,4-dihydro-1,4-methanopyrido[2,3-b][1,4]diazepine-5(2H)-carboxamide] | B (EC1.5 1-25 μM) | A (Fold activation ≧150%) |  | 
CN1CCN(c2ccc3c(n2)N(C(=O)Nc2cnccn2)[C@H]2CCN3C2)CC1 [Example 206, (4S)-7-(4-methylpiperazin-1-yl)-N-(pyrazin-2-yl)-3,4-dihydro-1,4-methanopyrido[2,3-b][1,4]diazepine-5(2H)-carboxamide] |  |  | B (EC1.5 1-25 μM) | A (Fold activation ≧150%)
Cc1cc(-c2ccc3c(n2)N(C(=O)N[C@@H](C)c2ccccn2)[C@H]2CCN3C2)ccn1 [Example 168, (4S)-7-(2-methylpyridin-4-yl)-N-((S)-1-(pyridin-2-yl)ethyl)-3,4-dihydro-1,4-methanopyrido[2,3-b][1,4]diazepine-5(2H)-carboxamide] | C (EC1.5>25 μM) | B (Fold Activation <150%) |  | 
Cc1cc(-c2ccc3c(n2)N(C(=O)Nc2ccc4[nH]ncc4n2)[C@H]2CCN3C2)ccn1 [Example 133, (4S)-7-(2-methylpyridin-4-yl)-N-(1H-pyrazolo[4,3-b]pyridin-5-yl)-3,4-dihydro-1,4-methanopyrido[2,3-b][1,4]diazepine-5(2H)-carboxamide] | A (EC1.5<1 μM) | A (Fold activation ≧150%) |  | 
Cc1cncc(-c2ccc3c(n2)N(C(=O)Nc2cnccn2)[C@H]2CCN3C2)c1 [Example 154, (4S)-7-(5-methylpyridin-3-yl)-N-(pyrazin-2-yl)-3,4-dihydro-1,4-methanopyrido[2,3-b][1,4]diazepine-5(2H)-carboxamide] | B (EC1.5 1-25 μM) | A (Fold activation ≧150%) |  | 

Other lines, results leading:

TRP Activity (EC1.5) | TRP MAX RESP (percent maximum fold activation) [1] | TRP Activity (EC1.5, concentration of test compound that results in 150% activation of SIRT1) [2] | TRP MAX RESP (percent maximum fold activation) [2] | SMILES
B (EC1.5 1-25 μM) | A (Fold activation ≧150%) |  |  | Cc1cc(-c2nc3c(cc2Cl)N2CC[C@@H](C2)N3C(=O)Nc2cccc(OC[C@@H](O)CO)n2)ccn1 [Example 93, (4S)-8-chloro-N-(6-((S)-2,3-dihydroxypropoxy)pyridin-2-yl)-7-(2-methylpyridin-4-yl)-3,4-dihydro-1,4-methanopyrido[2,3-b][1,4]diazepine-5(2H)-carboxamide]
B (EC1.5 1-25 μM) | A (Fold activation ≧150%) |  |  | O=C(Nc1ccnc(OC[C@@H](O)CO)c1)N1c2nc(-c3cncc(C(F)(F)F)c3)c(Cl)cc2N2CC[C@H]1C2 [Example 109, (4S)-8-chloro-N-(2-((S)-2,3-dihydroxypropoxy)pyridin-4-yl)-7-(5-(trifluoromethyl)pyridin-3-yl)-3,4-dihydro-1,4-methanopyrido[2,3-b][1,4]diazepine-5(2H)-carboxamide]
B (EC1.5 1-25 μM) | A (Fold activation ≧150%) |  |  | O=C(Nc1cnc(OC[C@@H](O)CO)cn1)N1c2nc(-c3cccc(C(F)(F)F)c3)c(Cl)cc2N2CC[C@H]1C2 [Example 33, (4S)-8-chloro-N-(5-((S)-2,3-dihydroxypropoxy)pyrazin-2-yl)-7-(3-(trifluoromethyl)phenyl)-3,4-dihydro-1,4-methanopyrido[2,3-b][1,4]diazepine-5(2H)-carboxamide]
A (EC1.5<1 μM) | A (Fold activation ≧150%) |  |  | Cl.O=C(Nc1ccnc(OC[C@@H](O)CO)n1)N1c2nc(-c3cccc(C(F)(F)F)c3)c(Cl)cc2N2CC[C@H]1C2 [Example 28, (4S)-8-chloro-N-(2-((S)-2,3-dihydroxypropoxy)pyrimidin-4-yl)-7-(3-(trifluoromethyl)phenyl)-3,4-dihydro-1,4-methanopyrido[2,3-b][1,4]diazepine-5(2H)-carboxamide, Hydrochloride]
B (EC1.5 1-25 μM) | A (Fold activation ≧150%) |  |  | O=C(Nc1ccnc(OC[C@H](O)CO)c1)N1c2nc(-c3cnn(C4CC4)c3)c(Cl)cc2N2CC[C@H]1C2 [Example 100, (4S)-8-chloro-7-(1-cyclopropyl-1H-pyrazol-4-yl)-N-(2-((R)-2,3-dihydroxypropoxy)pyridin-4-yl)-3,4-dihydro-1,4-methanopyrido[2,3-b][1,4]diazepine-5(2H)-carboxamide]
 |  | B (EC1.5 1-25 μM) | A (Fold activation ≧150%) | Cc1cc(-c2ccc3c(n2)N(C(=O)Nc2cc(CCC(O)CO)ccn2)[C@H]2CCN3C2)ccn1 (single isomer, unassigned) [Example 359]
B (EC1.5 1-25 μM) | A (Fold activation ≧150%) |  |  | O=C(Nc1cnc(OC[C@H](O)CO)nc1)N1c2nc(-c3cccc(C(F)(F)F)c3)c(Cl)cc2N2CC[C@H]1C2 [Example 66, (4S)-8-chloro-N-(2-((R)-2,3-dihydroxypropoxy)pyrimidin-5-yl)-7-(3-(trifluoromethyl)phenyl)-3,4-dihydro-1,4-methanopyrido[2,3-b][1,4]diazepine-5(2H)-carboxamide]
A (EC1.5<1 μM) | A (Fold activation ≧150%) |  |  | O=C(Nc1ccnc(OC[C@@H](O)CO)c1)N1c2nc(-c3cccc(C(F)F)c3)c(Cl)cc2N2CC[C@H]1C2 [Example 107, (4S)-8-chloro-7-(3-(difluoromethyl)phenyl)-N-(2-((S)-2,3-dihydroxypropoxy)pyridin-4-yl)-3,4-dihydro-1,4-methanopyrido[2,3-b][1,4]diazepine-5(2H)-carboxamide]
